Experimental data as given in PubChem BioAssay AID330 (DTP/NCI, 2004).
“And” between values parts separate entries of the source, which are not always exact repeats. Equal entries are not always repeated. Inconclusive results and toxic doses are left out. The calls were made as follows: active = survival T/C of 150% or more; inactive = T/C below 125% in these data.

Tested on: P388 leukemia ip, CD2F1 mice, survival T/C
Test: NCI In Vivo Anticancer Drug Screen. Data for tumor model P388 Leukemia (intraperitoneal) in CD2F1 (CDF1) mice
Conditions: endpoint: median survival time, higher = longer survival
Summary of the method: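 Mice carrying the transplanted tumor received test compound or vehicle. Survival was recorded in each group, and the value is the treated-group measurement divided by that of the vehicle-treated control group.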

[1] = dose: 50.0 mg/kg/injection, schedule: Q01DX005 (ip), vehicle: saline
[2] = dose: 100.0 mg/kg/injection, schedule: Q01DX005 (ip), vehicle: saline
[3] = dose: 200.0 mg/kg/injection, schedule: Q01DX005 (ip), vehicle: saline
[4] = dose: 50.0 mg/kg/injection, schedule: Q01DX005 (ip), vehicle: saline with Tween-80
[5] = dose: 100.0 mg/kg/injection, schedule: Q01DX005 (ip), vehicle: saline with Tween-80
[6] = dose: 50.0 mg/kg/injection, schedule: Q01DX005 (ip), vehicle: Klucel (hydroxypropylcellulose) (HPC)
[7] = dose: 100.0 mg/kg/injection, schedule: Q01DX005 (ip), vehicle: Klucel (hydroxypropylcellulose) (HPC)
[8] = dose: 200.0 mg/kg/injection, schedule: Q01DX005 (ip), vehicle: Klucel (hydroxypropylcellulose) (HPC)

Measured: T/C

CNC(=O)ON(C(C)=O)C(=O)NC
inactive: dose: 3.13 mg/kg/injection, schedule: Q03HX015 (ip), vehicle: water 101 % of control and 118 % of control | dose: 6.25 mg/kg/injection, schedule: Q01DX001 (iv), vehicle: saline 95 % of control | dose: 6.25 mg/kg/injection, schedule: Q01DX005 (iv), vehicle: saline 100 % of control | dose: 6.25 mg/kg/injection, schedule: Q01DX009 (ip), vehicle: saline 118 % of control | dose: 6.25 mg/kg/injection, schedule: Q03HX015 (ip), vehicle: water 121 % of control and 98 % of control | dose: 10.0 mg/kg/injection, schedule: Q01DX009 (ip), vehicle: saline 114 % of control and 119 % of control and 120 % of control | dose: 12.5 mg/kg/injection, schedule: Q01DX001 (iv), vehicle: saline 98 % of control | dose: 12.5 mg/kg/injection, schedule: Q01DX005 (ip), vehicle: saline 116 % of control | dose: 12.5 mg/kg/injection, schedule: Q01DX005 (iv), vehicle: saline 102 % of control | dose: 12.5 mg/kg/injection, schedule: Q01DX005 (oral), vehicle: saline 101 % of control | dose: 12.5 mg/kg/injection, schedule: Q01DX009 (ip), vehicle: water 103 % of control and 120 % of control | dose: 12.5 mg/kg/injection, schedule: Q01DX009 (oral), vehicle: saline 103 % of control | dose: 12.5 mg/kg/injection, schedule: Q03HX015 (ip), vehicle: saline 115 % of control | dose: 12.5 mg/kg/injection, schedule: Q03HX015 (ip), vehicle: water 99 % of control and 116 % of control | dose: 20.0 mg/kg/injection, schedule: Q01DX009 (ip), vehicle: saline 121 % of control | dose: 25.0 mg/kg/injection, schedule: Q01DX001 (ip), vehicle: saline 106 % of control | dose: 25.0 mg/kg/injection, schedule: Q01DX001 (iv), vehicle: saline 100 % of control | dose: 25.0 mg/kg/injection, schedule: Q01DX001 (oral), vehicle: saline 98 % of control | dose: 25.0 mg/kg/injection, schedule: Q01DX005 (ip), vehicle: saline 116 % of control | dose: 25.0 mg/kg/injection, schedule: Q01DX005 (iv), vehicle: saline 104 % of control | dose: 25.0 mg/kg/injection, schedule: Q01DX005 (oral), vehicle: saline 104 % of control | dose: 25.0 mg/kg/injection, schedule: Q01DX009 (ip), vehicle: water 106 % of control | dose: 25.0 mg/kg/injection, schedule: Q01DX009 (oral), vehicle: saline 120 % of control | dose: 25.0 mg/kg/injection, schedule: Q03HX015 (ip), vehicle: water 107 % of control | dose: 40.0 mg/kg/injection, schedule: Q01DX009 (ip), vehicle: saline 124 % of control | dose: 50.0 mg/kg/injection, schedule: Q01DX001 (ip), vehicle: saline 111 % of control | dose: 50.0 mg/kg/injection, schedule: Q01DX001 (iv), vehicle: saline 101 % of control and 102 % of control | dose: 50.0 mg/kg/injection, schedule: Q01DX001 (oral), vehicle: saline 97 % of control | [1] 114 % of control | dose: 50.0 mg/kg/injection, schedule: Q01DX005 (iv), vehicle: saline 106 % of control and 108 % of control | dose: 50.0 mg/kg/injection, schedule: Q01DX005 (oral), vehicle: saline 110 % of control | dose: 50.0 mg/kg/injection, schedule: Q01DX009 (ip), vehicle: water 107 % of control | dose: 50.0 mg/kg/injection, schedule: Q01DX009 (oral), vehicle: saline 115 % of control | dose: 50.0 mg/kg/injection, schedule: Q03HX015 (ip), vehicle: water 112 % of control | dose: 80.0 mg/kg/injection, schedule: Q01DX009 (ip), vehicle: saline 121 % of control | dose: 100.0 mg/kg/injection, schedule: Q01DX001 (ip), vehicle: saline 105 % of control | dose: 100.0 mg/kg/injection, schedule: Q01DX001 (iv), vehicle: saline 99 % of control and 101 % of control | dose: 100.0 mg/kg/injection, schedule: Q01DX001 (oral), vehicle: saline 103 % of control | dose: 100.0 mg/kg/injection, schedule: Q01DX005 (iv), vehicle: saline 114 % of control and 115 % of control | dose: 100.0 mg/kg/injection, schedule: Q01DX005 (oral), vehicle: saline 120 % of control | dose: 100.0 mg/kg/injection, schedule: Q01DX009 (ip), vehicle: water 121 % of control | dose: 200.0 mg/kg/injection, schedule: Q01DX001 (iv), vehicle: saline 107 % of control | dose: 200.0 mg/kg/injection, schedule: Q01DX001 (oral), vehicle: saline 103 % of control | dose: 200.0 mg/kg/injection, schedule: Q01DX005 (oral), vehicle: saline 116 % of control | dose: 200.0 mg/kg/injection, schedule: Q01DX009 (ip), vehicle: water 123 % of control | dose: 400.0 mg/kg/injection, schedule: Q01DX001 (oral), vehicle: saline 116 % of control

Cc1cc2c(c3ncccc13)OCN(Cc1ccc(Cl)cc1)C2
inactive: dose: 50.0 mg/kg/injection, schedule: Q01DX009 (ip), vehicle: saline with Tween-80 94 % of control | dose: 100.0 mg/kg/injection, schedule: Q01DX009 (ip), vehicle: saline with Tween-80 95 % of control | dose: 200.0 mg/kg/injection, schedule: Q01DX009 (ip), vehicle: saline with Tween-80 94 % of control

c1ccc(CON(CCc2ccccn2)CCc2ccccn2)cc1
inactive: [1] 97 % of control | [2] 98 % of control | [3] 98 % of control

CCCCCCCCCCCCNNC(=O)[C@@H]1[C@H](c2cc(OC)c(OC)c(OC)c2)c2cc3c(cc2[C@H](O)[C@H]1CO)OCO3
inactive: [4] 117 % of control and 124 % of control | [5] 122 % of control

Cc1ccc2c3c(c(=O)oc2c1)[C@H](C)C[C@@](C)(CO)O3
inactive: dose: 60.0 mg/kg/injection, schedule: Q01DX005 (ip), vehicle: saline with Tween-80 113 % of control | dose: 120.0 mg/kg/injection, schedule: Q01DX005 (ip), vehicle: saline with Tween-80 107 % of control | dose: 240.0 mg/kg/injection, schedule: Q01DX005 (ip), vehicle: saline with Tween-80 100 % of control

N#CC(C#N)=CN(CCO)CCO
inactive: [1] 99 % of control | [2] 99 % of control | [3] 97 % of control

O=C(/C=C\c1ccncc1)c1ccc([N+](=O)[O-])cc1
inactive: dose: 25.0 mg/kg/injection, schedule: Q01DX009 (ip), vehicle: other 103 % of control | dose: 50.0 mg/kg/injection, schedule: Q01DX009 (ip), vehicle: other 101 % of control | dose: 100.0 mg/kg/injection, schedule: Q01DX009 (ip), vehicle: other 96 % of control | dose: 200.0 mg/kg/injection, schedule: Q01DX009 (ip), vehicle: other 93 % of control | dose: 400.0 mg/kg/injection, schedule: Q01DX009 (ip), vehicle: other 92 % of control

Cc1nc(Nc2ccccc2)c2c(C)c(Cc3ccccc3)[nH]c2n1
inactive: [6] 89 % of control | [7] 86 % of control | [8] 87 % of control

CCCCOc1ccc(-n2c(=O)[nH]c3ccccc3c2=O)cc1
inactive: [6] 96 % of control | [7] 100 % of control | [8] 96 % of control

CC(C)(C)N=S=Nc1c(F)c(F)c(F)c(F)c1F
inactive: [4] 110 % of control | [5] 106 % of control

C/C(=N\Nc1cccc2ccccc12)c1ccccn1
inactive: [4] 111 % of control | [5] 103 % of control | dose: 200.0 mg/kg/injection, schedule: Q01DX005 (ip), vehicle: saline with Tween-80 98 % of control

CCOc1ccc(N=Nc2c(O)n(-c3ccc(Br)cc3)c(=S)n(-c3ccccc3)c2=O)cc1
inactive: dose: 100.0 mg/kg/injection, schedule: Q01DX001 (ip), vehicle: saline with Tween-80 107 % of control | dose: 200.0 mg/kg/injection, schedule: Q01DX001 (ip), vehicle: saline with Tween-80 98 % of control | dose: 400.0 mg/kg/injection, schedule: Q01DX001 (ip), vehicle: saline with Tween-80 100 % of control
